Literature values as cited in patent US20110104273A1, “GASTRIC RETENTIVE PHARMACEUTICAL COMPOSITIONS FOR IMMEDIATE AND EXTENDED RELEASE OF PHENYLEPHRINE” (DEPOMED, INC., priority 2009, published 2011).
Structures can show the parent of a compound that is named as a salt. Where two headings read alike, the source gives them in different places.

Assays:
[1] = not given; remark: listed apart in the source
[2] = system: cardiovascular system

SMILES | solubility in water | absorption from the gut ([1]; oral) | bioavailability ([1]; oral) | systemic bioavailability ([1]; oral administration) | fraction of oral dose excreted unchanged in the urine ([1]; oral dose) | threshold dosage for any effects on the cardiovascular system ([2]; administered orally in man) | effects on the cardiovascular system ([2]; oral over-the-counter (OTC) doses) | solubility in water (hydrochloride)
CNC[C@H](O)c1cccc(O)c1 [Phenylephrine HCl] | freely soluble |  |  |  |  |  |  | 
CNC[C@H](O)c1cccc(O)c1 [Phenylephrine, (R)-3-[-1-hydroxy-2-(methylamino)ethyl]phenol alcohol hydrochloride] |  | well absorbed | up to 38% | around 40% | about 3% | about 50 mg | minimal effects | highly soluble
